In patent US10479789B2, “Pyrido[1,2-A]pyrimidone analog, crystal form thereof, intermediate thereof and preparation method therefor” (Chia Tai Tianqing Pharmaceutical Group Co., Ltd., priority 2015, dated 2019):

Assays:
[1] = Stability of crystalline Form IX of Compound 1 in different solvents (XRPD after stirring); assay type: physicochemical; conditions: stirred at 40° C.; for Results (crystalline state by XRPD): 2 days
Method: Several samples of crystalline Form IX of Compound 1 in a suitable amount were taken, respectively added to 0.3-0.4 mL of a single solvent or a mixed solvent as shown in the following table, and stirred at 40° C. After stirring for 2 days, the samples were centrifuged. Solid in the samples was collected and its crystalline state was detected by XRPD.

[2] = Solid state stability of crystalline Form IX under high temperature, high humidity and strong light; assay type: physicochemical
Method: About 10 mg of crystalline Form IX of Compound 1 was weighed and placed on a bottom of a glass sample bottle to form a thin layer. For the samples placed under the conditions of 60° C. and room temperature/92.5% RH, the top of the bottles was covered with aluminum foil, and several holes were made in aluminum foil, which is ensure that the samples were fully exposed to the air in the environment; for the samples placed under strong light (5 Klx), the bottles were sealed with a screw cap. Another sample of 15 mg of crystalline Form IX was taken and placed according to the method as described above for detecting the crystalline form of the sample. The samples placed under different conditions were sampled and detected on day 5 and day 10, and the detection results were compared with the initial detection results on day 0.

[3] = High temperature 60° C. (opened), day 5
[4] = High temperature 60° C. (opened), day 5 and day 10
[5] = High temperature 60° C. (opened), day 10
[6] = Light 5KIx (closed), day 5 and day 10
[7] = Room temperature/92.5% RH (opened), day 5
[8] = Room temperature/92.5% RH (opened), day 5 and day 10
[9] = Room temperature/92.5% RH (opened), day 10

SMILES: COc1ncc(-c2ccc3ncc(OCCN(C)C)c(=O)n3c2)cc1NS(=O)(=O)c1ccc(F)cc1Cl [crystalline Form IX of Compound 1]
- Appearance (2 days) ([1]; acetone): suspension
- Results (crystalline state by XRPD) ([1]; acetone): crystalline
- Appearance (2 days) ([1]; acetone-water (1:2)): suspension
- Results (crystalline state by XRPD) ([1]; acetone-water (1:2)): crystalline
- Appearance (2 days) ([1]; acetonitrile): suspension
- Results (crystalline state by XRPD) ([1]; acetonitrile): crystalline
- Appearance (2 days) ([1]; ethanol): suspension
- Results (crystalline state by XRPD) ([1]; ethanol): crystalline
- Appearance (2 days) ([1]; ethanol-water (3:1)): suspension
- Results (crystalline state by XRPD) ([1]; ethanol-water (3:1)): crystalline
- Appearance (2 days) ([1]; ethyl acetate): suspension
- Results (crystalline state by XRPD) ([1]; ethyl acetate): crystalline
- Appearance (2 days) ([1]; isopropanol): suspension
- Results (crystalline state by XRPD) ([1]; isopropanol): crystalline
- Appearance (2 days) ([1]; isopropanol-water (1:1)): suspension
- Results (crystalline state by XRPD) ([1]; isopropanol-water (1:1)): crystalline
- Appearance (2 days) ([1]; methanol): suspension
- Results (crystalline state by XRPD) ([1]; methanol): crystalline
- Appearance (2 days) ([1]; methanol-water (3:1)): suspension
- Results (crystalline state by XRPD) ([1]; methanol-water (3:1)): crystalline
- Appearance (2 days) ([1]; tetrahydrofuran): suspension
- Results (crystalline state by XRPD) ([1]; tetrahydrofuran): crystalline
- Content (%) [2, 3]: 100.64%
- Total impurities (%) [2, 3]: 0.32%
- Appearance [2, 4]: White
- Crystalline Form [2, 4]: crystalline
- Content (%) [2, 5]: 100.55%
- Total impurities (%) [2, 5]: 0.33%
- Content (%) ([2]; Light 5KIx (closed), day 5): 100.43%
- Total impurities (%) ([2]; Light 5KIx (closed), day 5): 0.31%
- Appearance [2, 6]: White
- Crystalline Form [2, 6]: crystalline
- Content (%) ([2]; Light 5KIx (closed), day 10): 101.10%
- Total impurities (%) ([2]; Light 5KIx (closed), day 10): 0.32%
- Content (%) [2, 7]: 101.05%
- Total impurities (%) [2, 7]: 0.32%
- Appearance [2, 8]: White
- Crystalline Form [2, 8]: crystalline
- Content (%) [2, 9]: 101.16%
- Total impurities (%) [2, 9]: 0.32%
- Appearance ([2]; day 0 (initial)): White
- Content (%) ([2]; day 0 (initial)): 101.02%
- Crystalline Form ([2]; day 0 (initial)): crystalline
- Total impurities (%) ([2]; day 0 (initial)): 0.32%
